Where “and” joins values, the source holds several entries; their conditions need not be identical. Equal values may be shown once. Read-outs that look alike come from different tables or passages of the source.
How the values were obtained:
[1] = cited from earlier work
[2] = test system: IK1; details: read-out: IK1 IC50; HEK293 ref Noujaim et al. (2011); cited from earlier work
[3] = test system: ICaL; details: read-out: ICaL IC50; cat Purkinje fibers ref Sánchez-Chapula et al. (2001); cited from earlier work
[4] = biological target: hKv7.1+hMinK (Homo sapiens, UniProt P51787); experiment: IKs double-step voltage protocol, HEK293 cells; assay type: cell-based; details: for effect on plateau IKs level: highest concentration applied (100 μM)
[5] = test system: INa peak; details: read-out: INa peak IC50; HEK293 ref Jordaan et al. (2021); cited from earlier work
[6] = test system: IKr; details: read-out: IKr IC50; Xenopus laevis oocytes ref Sánchez-Chapula et al. (2002); cited from earlier work
[7] = test system: IKr; details: read-out: IKr IC50, cited from earlier work
[8] = test system: Ito; details: read-out: Ito IC50; rat ventricular myocytes ref Wagner et al. (2010); cited from earlier work
[9] = biological target: T1, hNav1.5 (Homo sapiens, UniProt Q14524); experiment: Peak INa at PT, manual patch-clamp, HEK293 cells; assay type: cell-based; details: for INa peak Hill coefficient nH: PT
[10] = biological target: T2, hERG1 (Homo sapiens, UniProt Q12809); experiment: Manual patch-clamp, standard 2-step hERG protocol at PT; assay type: cell-based
[11] = test system: peak L-type Ca2+ current (ICaL) in Pluricyte cardiomyocytes; experiment: hiPSC-CM β-escin-perforated voltage-clamp: peak ICaL; assay type: cell-based; details: Homo sapiens, Cardiomyocyte; for IC50: read-out: ICaL IC50
[12] = biological target: T2, hERG1; experiment: Manual whole-cell patch-clamp, standard 2-step hERG protocol at RT, HEK293T; details: for Hill coefficient nH, hERG inhibition: manual patch-clamp, RT
[13] = test system: steady funny current (If) in Pluricyte cardiomyocytes; experiment: hiPSC-CM β-escin-perforated voltage-clamp: steady funny current; assay type: cell-based; details: Homo sapiens, Cardiomyocyte, read-out: If IC50
[14] = test system: INa late; details: read-out: INa late IC50, CHO, cited from earlier work
[15] = test system: hERG (peak IKr); experiment: hiPSC-CM β-escin-perforated voltage-clamp: peak IKr; assay type: cell-based, human; details: human
[16] = test system: peak hERG current (IKr) in Pluricyte cardiomyocytes; experiment: as above; assay type: cell-based, human; details: 5 μM; hiPSC-CM; individual experiments and average ± SD
[17] = test system: IKs; details: human atrial myocytes ref Borsini et al. (2012), cited from earlier work
[18] = test system: ICaL; details: read-out: ICaL IC50; HEK293 ref Jordaan et al. (2021); cited from earlier work
[19] = test system: ICaL; details: read-out: ICaL IC50; CHO, RT ref Delaunois et al. (2021); cited from earlier work
[20] = test system: INa peak; details: human atrial myocytes ref Borsini et al. (2012), cited from earlier work
[21] = test system: peak voltage-dependent Na+ current (INa) in Pluricyte cardiomyocytes; experiment: hiPSC-CM β-escin-perforated voltage-clamp: peak INa; assay type: cell-based; details: Homo sapiens, Cardiomyocyte; for IC50: read-out: peak INa IC50 in hiPSC-CM
[22] = biological target: T1, hNav1.5; experiment: Peak INa in presence of ATX-II 20 nM at RT, HEK293 cells; details: for IC50: INa peak IC50, hNav1.5, ATX-II 20 nM, Hill fit
[23] = test system: If; details: read-out: If IC50, cited from earlier work
[24] = test system: INa peak; details: read-out: INa peak IC50; CHO, PT ref Delaunois et al. (2021); cited from earlier work
[25] = biological target: T1, hNav1.5; experiment: Late INa in presence of ATX-II 20 nM at RT, HEK293 cells; details: for IC50: INa late IC50, hNav1.5, ATX-II 20 nM, end of tail current at 0 mV
[26] = biological target: T2, hERG1; experiment: Automated patch-clamp; details: for Hill coefficient nH, hERG inhibition: automated patch-clamp, RT
[27] = test system: INa peak; details: read-out: INa peak IC50; cat Purkinje fibers ref Sánchez-Chapula et al. (2001); cited from earlier work
[28] = test system: IKr; details: read-out: IKr IC50, cited from earlier work; remark: listed apart in the source
[29] = biological target: T3, hKir2.1 (Homo sapiens, UniProt P63252); details: HEK-293T, read-out: IK1 (hKir2.1) IC50
T3 sequence (P63252 1-427): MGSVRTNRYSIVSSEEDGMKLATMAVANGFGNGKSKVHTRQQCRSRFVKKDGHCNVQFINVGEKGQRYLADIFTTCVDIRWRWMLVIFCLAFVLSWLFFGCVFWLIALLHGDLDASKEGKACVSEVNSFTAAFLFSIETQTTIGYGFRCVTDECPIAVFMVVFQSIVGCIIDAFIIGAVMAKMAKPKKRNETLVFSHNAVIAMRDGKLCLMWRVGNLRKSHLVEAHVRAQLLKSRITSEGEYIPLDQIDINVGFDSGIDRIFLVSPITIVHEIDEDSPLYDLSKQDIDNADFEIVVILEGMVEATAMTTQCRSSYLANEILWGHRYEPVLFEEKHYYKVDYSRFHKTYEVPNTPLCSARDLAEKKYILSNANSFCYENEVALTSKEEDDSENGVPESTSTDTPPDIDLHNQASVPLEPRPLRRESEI

[30] = test system: ICaL; details: cited from earlier work
[31] = test system: IKr; details: cited from earlier work
[32] = standard 12-compounds panel ref Dutta et al., (2017)
[33] = read-out: peak ICaL, % of control values
[34] = read-out: peak INa, % of control values
[35] = HEK293, RT ref Delaunois et al. (2021)
[36] = CHO, PT ref Delaunois et al. (2021)
[37] = CHO, PT ref TeBay et al. (2021)
[38] = 3 μM, guinea pig SAN cells ref Capel et al. (2015)

T2 sequence (Q12809 whole entry): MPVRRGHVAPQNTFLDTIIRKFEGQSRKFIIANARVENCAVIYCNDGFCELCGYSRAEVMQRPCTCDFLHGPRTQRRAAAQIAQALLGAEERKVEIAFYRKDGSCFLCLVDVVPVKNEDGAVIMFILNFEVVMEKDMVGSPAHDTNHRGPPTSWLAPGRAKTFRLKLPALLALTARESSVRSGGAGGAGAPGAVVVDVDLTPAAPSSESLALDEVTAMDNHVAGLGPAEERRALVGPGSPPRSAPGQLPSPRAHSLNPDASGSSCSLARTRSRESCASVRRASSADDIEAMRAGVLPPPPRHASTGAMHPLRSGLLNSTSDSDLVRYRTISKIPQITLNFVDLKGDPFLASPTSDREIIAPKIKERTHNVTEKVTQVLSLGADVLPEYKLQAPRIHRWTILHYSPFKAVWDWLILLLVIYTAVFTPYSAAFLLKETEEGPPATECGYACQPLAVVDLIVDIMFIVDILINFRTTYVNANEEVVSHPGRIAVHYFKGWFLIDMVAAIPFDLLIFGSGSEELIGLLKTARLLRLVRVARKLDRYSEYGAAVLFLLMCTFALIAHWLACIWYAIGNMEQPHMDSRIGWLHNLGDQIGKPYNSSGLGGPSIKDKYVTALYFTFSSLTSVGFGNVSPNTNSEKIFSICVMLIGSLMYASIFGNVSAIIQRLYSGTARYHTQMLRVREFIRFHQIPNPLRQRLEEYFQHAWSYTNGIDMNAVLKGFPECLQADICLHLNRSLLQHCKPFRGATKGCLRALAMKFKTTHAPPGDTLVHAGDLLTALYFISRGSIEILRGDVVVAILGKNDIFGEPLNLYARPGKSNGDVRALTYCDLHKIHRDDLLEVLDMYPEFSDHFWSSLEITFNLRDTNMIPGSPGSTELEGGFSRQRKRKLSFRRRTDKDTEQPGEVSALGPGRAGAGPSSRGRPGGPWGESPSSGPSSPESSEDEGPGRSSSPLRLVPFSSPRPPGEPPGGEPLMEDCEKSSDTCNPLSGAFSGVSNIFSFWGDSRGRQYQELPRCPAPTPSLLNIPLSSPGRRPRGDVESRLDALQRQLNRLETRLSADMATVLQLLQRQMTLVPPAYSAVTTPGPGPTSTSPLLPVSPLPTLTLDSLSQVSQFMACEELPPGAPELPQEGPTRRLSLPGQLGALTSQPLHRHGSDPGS
Sequence of hKv7.1+hMinK (P51787 whole entry): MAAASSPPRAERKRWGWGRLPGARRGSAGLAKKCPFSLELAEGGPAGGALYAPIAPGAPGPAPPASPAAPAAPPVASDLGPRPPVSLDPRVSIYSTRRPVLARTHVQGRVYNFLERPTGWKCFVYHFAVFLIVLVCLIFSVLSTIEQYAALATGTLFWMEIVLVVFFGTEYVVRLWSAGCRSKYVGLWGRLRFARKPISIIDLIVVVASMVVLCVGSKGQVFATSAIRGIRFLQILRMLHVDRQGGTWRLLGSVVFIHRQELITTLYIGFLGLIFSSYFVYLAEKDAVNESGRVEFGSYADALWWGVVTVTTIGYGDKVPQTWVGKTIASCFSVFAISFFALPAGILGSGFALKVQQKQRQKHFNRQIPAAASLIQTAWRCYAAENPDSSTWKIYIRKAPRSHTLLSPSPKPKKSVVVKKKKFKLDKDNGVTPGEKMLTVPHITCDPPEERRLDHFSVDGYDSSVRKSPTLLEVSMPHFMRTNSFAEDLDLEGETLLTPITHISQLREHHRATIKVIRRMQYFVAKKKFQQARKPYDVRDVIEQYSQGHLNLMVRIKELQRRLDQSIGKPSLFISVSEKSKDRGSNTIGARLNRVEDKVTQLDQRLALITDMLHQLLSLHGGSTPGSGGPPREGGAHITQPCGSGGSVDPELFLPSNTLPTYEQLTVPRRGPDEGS
T1 sequence (Q14524 whole entry): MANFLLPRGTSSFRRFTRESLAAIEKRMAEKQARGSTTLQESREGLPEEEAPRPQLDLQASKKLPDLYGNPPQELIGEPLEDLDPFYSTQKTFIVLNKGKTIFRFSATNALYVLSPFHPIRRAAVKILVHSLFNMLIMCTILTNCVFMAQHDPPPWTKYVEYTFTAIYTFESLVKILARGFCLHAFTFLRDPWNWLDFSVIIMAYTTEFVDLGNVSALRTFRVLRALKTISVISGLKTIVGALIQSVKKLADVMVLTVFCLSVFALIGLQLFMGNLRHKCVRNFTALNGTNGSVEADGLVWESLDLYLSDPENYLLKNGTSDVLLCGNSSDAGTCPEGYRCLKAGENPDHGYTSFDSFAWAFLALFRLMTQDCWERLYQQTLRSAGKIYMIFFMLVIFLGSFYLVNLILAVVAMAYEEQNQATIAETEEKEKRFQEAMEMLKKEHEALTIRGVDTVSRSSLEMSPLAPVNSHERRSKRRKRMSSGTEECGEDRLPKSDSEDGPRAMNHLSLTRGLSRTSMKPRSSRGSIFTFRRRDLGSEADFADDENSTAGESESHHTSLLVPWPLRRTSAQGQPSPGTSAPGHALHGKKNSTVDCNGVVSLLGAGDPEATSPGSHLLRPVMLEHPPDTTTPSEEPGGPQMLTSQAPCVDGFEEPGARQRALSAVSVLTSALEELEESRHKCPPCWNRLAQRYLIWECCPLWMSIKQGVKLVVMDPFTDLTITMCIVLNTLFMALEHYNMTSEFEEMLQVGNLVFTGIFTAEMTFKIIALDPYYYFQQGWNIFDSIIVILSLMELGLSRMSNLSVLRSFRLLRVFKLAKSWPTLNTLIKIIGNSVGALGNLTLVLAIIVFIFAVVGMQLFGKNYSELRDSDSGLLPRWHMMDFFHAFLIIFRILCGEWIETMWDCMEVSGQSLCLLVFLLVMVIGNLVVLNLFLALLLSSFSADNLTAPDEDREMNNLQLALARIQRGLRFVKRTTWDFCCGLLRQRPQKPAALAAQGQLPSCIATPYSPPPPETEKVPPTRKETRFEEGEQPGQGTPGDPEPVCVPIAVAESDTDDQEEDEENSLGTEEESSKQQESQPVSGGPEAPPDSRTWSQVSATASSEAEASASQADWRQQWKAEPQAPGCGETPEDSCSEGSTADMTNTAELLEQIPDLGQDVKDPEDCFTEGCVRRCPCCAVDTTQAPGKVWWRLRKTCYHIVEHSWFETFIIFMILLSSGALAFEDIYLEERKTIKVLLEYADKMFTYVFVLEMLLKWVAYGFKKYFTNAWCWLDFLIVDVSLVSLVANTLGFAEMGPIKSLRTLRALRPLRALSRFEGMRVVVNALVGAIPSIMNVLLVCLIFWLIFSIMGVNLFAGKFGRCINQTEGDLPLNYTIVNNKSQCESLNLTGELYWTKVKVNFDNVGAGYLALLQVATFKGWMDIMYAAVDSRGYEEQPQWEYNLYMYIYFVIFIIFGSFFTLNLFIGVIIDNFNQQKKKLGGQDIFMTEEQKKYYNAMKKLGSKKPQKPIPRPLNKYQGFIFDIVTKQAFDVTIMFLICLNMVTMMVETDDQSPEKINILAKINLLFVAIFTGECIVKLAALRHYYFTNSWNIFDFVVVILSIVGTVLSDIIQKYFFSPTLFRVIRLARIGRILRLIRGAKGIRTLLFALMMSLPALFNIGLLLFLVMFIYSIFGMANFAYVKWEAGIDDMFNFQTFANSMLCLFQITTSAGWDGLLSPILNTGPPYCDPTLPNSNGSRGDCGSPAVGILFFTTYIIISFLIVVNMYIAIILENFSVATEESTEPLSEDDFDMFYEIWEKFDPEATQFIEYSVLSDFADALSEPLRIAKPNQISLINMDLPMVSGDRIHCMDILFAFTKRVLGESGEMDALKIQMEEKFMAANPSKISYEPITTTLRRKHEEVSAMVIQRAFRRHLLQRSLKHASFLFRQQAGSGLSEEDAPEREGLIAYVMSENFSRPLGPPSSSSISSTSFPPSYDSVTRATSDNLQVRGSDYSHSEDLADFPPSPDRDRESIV

COc1ccccc1OCC(O)CN1CCN(CC(=O)Nc2c(C)cccc2C)CC1 (stereo not shown) [Ranolazine]
Cmax [1, 32]: 1950 nM

Cc1nccn1CC1CCc2c(c3ccccc3n2C)C1=O (stereo not shown) [Ondansetron]
Cmax [1, 32]: 139 nM

COc1ccc([C@@H]2Sc3ccccc3N(CCN(C)C)C(=O)[C@@H]2OC(C)=O)cc1 [Diltiazem]
Cmax [1, 32]: 122 nM

Cc1cccc(C)c1OCC(C)N (stereo not shown) [Mexiletine]
Cmax [1, 32]: 4130 nM

CC(C)(C)c1ccc(C(O)CCCN2CCC(C(O)(c3ccccc3)c3ccccc3)CC2)cc1 (stereo not shown) [Terfenadine]
Cmax [1, 32]: 4 nM

CCN(CC)CCCC(C)Nc1ccnc2cc(Cl)ccc12 (stereo not shown) [chloroquine]
IC50 [2]: 1.2 µM | IC50 [3]: 21.2 µM | IC50 [4]: > 100 µM | effect on plateau IKs level [4]: only slightly inhibited | IC50 [5]: 8.48 µM | IC50 [6]: 8.4 µM | IC50 ([7]; HEK293, RT ref Borsini et al. (2012)): 0.96 µM | IC50 ([7]; HEK293, RT ref Traebert et al. (2004)): 2.5 µM | IC50 [8]: 4600 µM | IC50 [9]: 39.3 µM | INa peak Hill coefficient nH [9]: 0.97 | Hill coefficient nH, hERG inhibition [10]: 1.25 | IC50 [11]: 30.7 µM | activity at 5 µM [11, 33]: 86 ± 9% | Hill coefficient nH, hERG inhibition [12]: 0.90 | IC50 [13]: > 162 µM | IC50 ([14]; PT ref Delaunois et al. (2021)): 11.6 µM | IC50 ([14]; RT ref Delaunois et al. (2021)): 109 µM | activity at 5 µM [15]: 37.2% | potency estimated from few doses [15]: 2.96 µM | peak IKr % inhibition [16]: 62.78 ± 11.12% | IKs % block ([17]; 10 μM): 8% | IC50 ([17]; read-out: IKs IC50): 115 µM | IC50 [18]: 3.05 µM | Cmax ([1]; Table 2 ref Borsini et al. (2012)): 410 nM | Cmax, maximal free plasma therapeutic concentration ([1]; usual doses ref Borsini et al., 2012): 0.41 µM | IC50 [19]: 17.9 µM | INa peak % block ([20]; 30 μM): 42.6% | IC50 ([20]; read-out: INa peak IC50): 40.4 µM | IC50 [21]: 45 µM | inhibition at 5 µM ([21]; read-out: peak INa average inhibition): 10% | activity at 5 µM [21, 34]: 90 ± 12% | INa peak Hill coefficient nH [22]: 0.98 | IC50 [22]: 159 µM | IC50 [23, 35]: 228 µM | IC50 [24]: 14 µM | INa late Hill coefficient nH [25]: 0.85 | IC50 [25]: 30.4 µM | Hill coefficient nH, hERG inhibition [26]: 1.36 | IC50 [27]: 12.2 µM | IC50 ([28]; CHO ref Jordaan et al. (2021)): 7.77 µM | IC50 [28, 36]: 1.03 µM | IC50 [28, 37]: 1.47 µM | potency estimated from few doses [29]: 5.86 µM

CN(C)CCCN1c2ccccc2Sc2ccc(Cl)cc21 [Chlorpromazine]
Cmax [1, 32]: 38 nM

CCN(CCO)CCCC(C)Nc1ccnc2cc(Cl)ccc12 (stereo not shown) [hydroxychloroquine]
ICaL % block [30, 38]: 12% | IC50 ([30]; read-out: ICaL IC50, guinea pig SAN cells, PT ref Capel et al. (2015)): 22 µM | IC50 [4]: > 100 µM | effect on plateau IKs level [4]: only slightly inhibited | IC50 [5]: > 300 µM | IKr % block [31, 38]: 35% | IC50 ([31]; read-out: IKr IC50, guinea pig SAN cells, PT ref Capel et al. (2015)): 5.6 µM | IC50 [9]: 42.4 µM | INa peak Hill coefficient nH [9]: 1.02 | IC50 [11]: 90 µM | activity at 10 µM [11, 33]: 90 ± 12% | IC50 [12]: 4.79 µM | Hill coefficient nH, hERG inhibition [12]: 0.85 | IC50 [13]: > 990 µM | IC50 ([14]; PT ref Delaunois et al. (2021)): 21.4 µM | IC50 ([14]; RT ref Delaunois et al. (2021)): 92.9 µM | IC50 [18]: 7.64 µM | Cmax ([1]; Table 2 ref Yao et al. (2020)): 495 nM | Cmax, maximal free plasma therapeutic concentration ([1]; usual doses ref Yao et al., 2020): 0.495 μM and 215 ng/ml | Cmax, maximal free plasma therapeutic concentration ([1]; usual doses ref Yao et al., 2020, listed as Hydroxychloroquine): 0.495 μM and 215 ng/ml | IC50 [19]: 66.3 µM | IC50 [21]: 52.5 µM | activity at 10 µM [21, 34]: 84 ± 16% | INa peak Hill coefficient nH [22]: 0.81 | IC50 [22]: 96.2 µM | IC50 ([23]; HEK293, PT ref Delaunois et al. (2021)): > 300 µM | IC50 [23, 35]: 372 µM | IC50 [24]: 17 µM | INa late Hill coefficient nH [25]: 0.89 | IC50 [25]: 64.9 µM | IC50 [26]: 3.42 µM | Hill coefficient nH, hERG inhibition [26]: 1.02 | IC50 ([28]; CHO ref Jordaan et al. (2021)): 9.7 µM | IC50 [28, 36]: 2.66 µM | IC50 [28, 37]: 3.78 µM | IC50 ([28]; CHO, RT ref Delaunois et al. (2021)): 6.97 µM | potency estimated from few doses [29]: 29.3 µM

CC(C)NCC(O)c1ccc(NS(C)(=O)=O)cc1 (stereo not shown) [Sotalol]
Cmax [1, 32]: 14700 nM

Source: paper PMC8590616 (European Journal of Pharmacology, 2021)
